What was measured:
[1] = system: α1β2 εF260E mutant GABAAR; experiment: Two electrode voltage clamp recordings from Xenopus oocytes; format: cell-based, human; settings: ε F260E compared with WT
Protocol: Mutations were engineered with a QuikChange strategy and confirmed by sequencing. For functional expression of GABAAR containing an ε subunit, the mRNAs encoding for the human α1 (NP_000797.2), β2 (NP_068711.1) and ε subunits were mixed in a 1:1:0.1 ratio in nuclease-free distilled water at a concentration of 0.4 μg/μl (n.b. the definitive stoichiometry of the expressed receptors was not determined). […] Injection of 2 ng of mRNA per oocyte was done using the automated injection system Roboinject (Multi Channel Systems). Oocytes were incubated at 18 °C for 2 to 5 days prior to conducting the electrophysiological recordings using the two electrode automated voltage clamp system (HiClamp apparatus, Multi Channel Systems). […] Data acquired with the HiClamp were analyzed using the manufacturer’s software (Multi Channel Systems). Concentration–activation curves were fitted with the empirical Hill equation. Data are presented as the mean ± standard deviation (SD). Statistical comparison between WT and mutants was done with an unpaired, two-tailed t test with Welch’s correction for unequal sample size and variance.

[2] = system: ELIC with fluorinated Trp at W206; experiment: Two-electrode voltage clamp of oocytes, noncanonical fluorinated Trp (FW, F2W, F3W) at position 206; format: cell-based, D. didantii; settings: F3W at position 206, compared with WT
Protocol: Site-directed mutagenesis was performed using the QuikChange strategy (Stratagene) using ELIC in pGEM-HE. Mutations were confirmed by sequencing. For noncanonical amino acid mutants, the site of interest was mutated to the TAG stop codon. Plasmids were linearized and receptor mRNA prepared by in vitro runoff transcription using the Ambion T7 mMessage mMachine kit. Noncanonical amino acids ligated to tRNA were prepared as previously described ([56]).
Stage V-VI oocytes of Xenopus laevis were harvested and injected with mRNAs as described previously. For experiments with WT channels and conventional mutants, each cell received a single injection of 10 to 25 ng of receptor mRNA approximately 24 h before recording. For nonsense suppression experiments, each cell was injected with 50 to 100 ng each of receptor mRNA and appropriate tRNA approximately 48 h before recording. Injection volumes for each injection session were 50 to 100 nl per cell.
Two-electrode voltage clamping of Xenopus oocytes was performed using an OpusXpress system (Axon Instruments, Inc). All experiments were performed at 22 to 25 °C. […] The holding potential was −60 mV unless otherwise specified. Concentration–response curves and parameters were obtained using Prism software (GraphPad, PRISM).

ELIC W206A = biological target: T1, ELIC W206A (Dickeya chrysanthemi, UniProt P0C7B7, INS163G/W205A); experiment: FlexStation membrane potential dye assay, GABA-elicited responses; format: cell-based, D. didantii; settings: HEK293 cells, up to 100 mM GABA
T1 construct: expressed in transfected cells; host or cells: HEK293
Protocol: (§1) These methods were similar to those previously described ([55]). Briefly, ELIC cDNA was transfected into HEK293 cells, and these were then grown for 2 to 3 days in a 96-well plate. Then blue fluorescent membrane potential dye (Molecular Devices Ltd) diluted in Flex buffer (10 mM HEPES, 115 mM NaCl, 1 mM KCl, 1 mM CaCl2, 1 mM MgCl2, 10 mM glucose, pH 7.4) was added to each well. After incubation at 37 °C for 30 min, plates were placed in a FlexStation (Molecular Devices Ltd) and fluorescence measured every 2 s for 120 s. […] Concentration–response data were fitted to the four-parameter logistic equation, F = Fmin + (Fmax − Fmin)/(1 + 10^log(EC50-[A])∗^nH), where [A] is the concentration of agonist, nH is the Hill coefficient, and Fmax and Fmin are the maximal and minimal fluorescence levels for each dataset, using Prism software (GraphPad). WT and mutant responses were compared using an ANOVA test followed by Dunnett’s multiple comparison test.

ELIC W206F = biological target: T2, ELIC W206F (Dickeya chrysanthemi, UniProt P0C7B7, INS163G/W205F); experiment: as above; format: cell-based, D. didantii; settings: HEK293 cells, n = 4
T2 construct: expressed in transfected cells; host or cells: HEK293
Protocol: as §1

ELIC W206Y = experiment: as above; format: cell-based, D. didantii; settings: HEK293 cells
Protocol: as §1

wild-type (WT) ELIC = experiment: as above; format: cell-based, D. didantii; settings: HEK293 cells transfected with WT ELIC
Protocol: as §1

**Q.** Which “decrease of apparent GABA affinity” value [1] does the source give for `NCCCC(=O)O` [GABA] here?
**A.** The value was “threefold”.

**Q.** And the “change of EC50-values” [2]?
**A.** The value was “increased EC50-values”.

**Q.** And the GABA-elicited response (ELIC W206A)?
**A.** The GABA-elicited response was “no response”.

**Q.** And the EC50 (ELIC W206F)?
**A.** The EC50 was 2000 µM.

**Q.** What about the pEC50 (ELIC W206F) of the same compound?
**A.** Its pEC50 is 2.694 ± 0.08.

**Q.** And the maximal response (ELIC W206Y)?
**A.** The maximal response was ~60 % of WT.

**Q.** What about the Hill coefficient (wild-type (WT) ELIC) of the same compound?
**A.** The Hill coefficient was 2.2 ± 1.4.

Source: publication PMC8327344, “Regulation of a pentameric ligand-gated ion channel by a semiconserved cationic lipid-binding site” (The Journal of Biological Chemistry, 2021)
